Assay [1] deals with STAT5 transcriptional activity in Ba/F3 cells. Put plainly: IL3-stimulated STAT5 transcriptional activity, Renilla reporter Ba/F3 cells. To be noted: 4 h pretreatment, mIL3 30 ng/ml 16 h.
The test system of the next assay is T47D cells. Put plainly: Cell cycle analysis by flow cytometry. In kind it is cell-based, human. The settings on record: 5 μM; 48h. As for the experimental part: For cell cycle studies, unsynchronized T47D cells were seeded at 250,000 cells/well in RPMI (Biowest, Nuaillé, France) 10% FBS medium supplemented with L-glutamine (2 mM), HEPES (10 mM), sodium pyruvate (1 mM) and PEST. […] Cells were then washed in ice-cold PBS and fixed in cold 70% ethanol at −20 °C overnight. Then, the cell pellet was resuspended in FACs buffer (2 mM EDTA, 2% FBS in PBS) and incubated with Ki67-APC antibody (Miltenyi Biotec, Auburn, CA, USA) and DAPI (4′,6-diamidino-2-phenylindole; Sigma-Aldrich) for 20 min at room temperature. Finally, cells were washed and resuspended with FACs Buffer for cell cycle analyses. For apoptosis studies, an Annexin V-FITC Apoptosis Kit (Miltenyi Biotec) was used. Briefly, treated cells were collected in 100 μL of ice-cold AnnexinV binding buffer (10 mM HEPES pH 7.4, 140 mM NaCl, 2.5 mM CaCl2) containing 10 μL of Annexin-V FITC and incubated for 15 min at room temperature. After that, cells were washed with 1 mL binding buffer, sedimented at 300× g 10 min, and resuspended with 500 μL binding buffer containing 5 μL of propidium iodide (PI; 100 μg/mL) prior to acquisition in MACSQuant10 cytometer (Miltenyi Biotec) where 10,000 or 20,000 events were used for cell cycle and apoptosis analysis, respectively.

The subject of assay [2] is STAT3 transcriptional activity in HEK293 cells. Nature of the assay: IL6-induced STAT3 transcriptional activity, Renilla reporter HEK-293 cells. The settings on record: 4 h pretreatment, hIL6 10 ng/ml 16 h.
Assay [3] has as its system polyubiquitinated protein level in T47D cells. Nature of the assay: Immunoblotting. Format: cell-based, human. The settings on record: from 24 h to 72 h. On the procedure: Then, they were washed with ice-cold PBS supplemented with 1 mM ortovanadate and lysed with RIPA buffer containing protease and phosphatase inhibitors (Thermo Fisher Scientific, Waltham, MA, USA). Equal protein amounts were analyzed by SDS–PAGE, and transferred to nitrocellulose membranes (Thermo Fisher Scientific, Waltham, MA, USA), blocked with Tris-buffered saline/0.05% Tween 20 (TBS-T) containing 5% blotto (Merck, Darmstadt, Germany) or 5% BSA for total and phosphorylated proteins, respectively. Immunoblotting was carried out with mouse anti-ERα F-10 (Santa Cruz Biotech, Santa Cruz, CA, USA), rabbit total anti-STAT5 (Cell Signaling Technology, Leiden, The Netherlands) or mouse anti-polyubiquitin (EMD Millipore, Burlington, MA, USA). After washing, membranes were incubated with horseradish peroxidase-conjugated secondary antibodies (Bio-Rad) for 1 h at room temperature. The β-actin antibody (Santa Cruz Biotech, CA, USA) was used as the loading control. Finally, protein bands were visualized by using Clarity™ Western ECL Substrate (Bio-Rad) in the ChemiDoc XRS system (Bio-Rad) and were analyzed with Quantity One software (Bio-Rad).

Assay [4] has as its system ERα-mediated transcription (3xERE-luciferase), T47D-KBluc cells. Nature of the assay: ER-dependent transcriptional activity, 3xERE-luciferase reporter in T47D-KBluc cells. The settings on record: until dropping to 20% Emax. In general terms: Reporter assays use an easily measured gene product as a stand-in for the process of interest.

Turning to `Cc1ccc(C2=CC(O)(c3ccccc3)N(Cc3ccccc3)C2=O)cc1C` (centres unmarked) [compound 32, 1-benzyl-3-(3,4-dimethylphenyl)-5-hydroxy-5-phenyl-1H-pyrrol-2(5H)-one], the “IC50, IL3-stimulated STAT5 transcriptional activity” value in assay [1] is “no activity”.
`O=C1C(c2ccc([N+](=O)[O-])cc2)=CC(O)(c2ccccc2)N1Cc1ccccc1` (centres unmarked) [compound 35, 1-benzyl-5-hydroxy-3-(4-nitrophenyl)-5-phenyl-1H-pyrrol-2(5H)-one]: in the assay on T47D cells, the G2/S/M cells is 16.52%. For the same molecule, in assay [2], the “IC50, IL6-induced STAT3 transcriptional activity” value was “inactive”. The “effect on polyubiquitinated protein level” value in assay [3] is “significantly increased polyubiquitinated protein level”. In assay [4], the “effect on E2-induced luciferase activity” value was “reduced E2-induced luciferase activity”.
